According to ChEMBL document CHEMBL1201862, “PubChem BioAssay data set” (2004):
Active and inactive are the calls of the source.

Experiments:
[1] = target: Melanocortin receptor 4 (Homo sapiens, UniProt P32245); type: functional, cell-based;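 also: Cell-based assay with luminescence read-out, confirmatory dose-response testing for agonist activity of biased ligands at MC4R; human U2OS cells with tagged receptor and beta-arrestin; potency of agonists that increase receptor coupling to beta-arrestin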
[2] = C. albicans growth with fluconazole, confirmation, fluorescence, retest (AID 2467); type: functional, cell-based
[3] = system: INS1; assay: beta cell apoptosis inhibitors, cytokine rescue, dose response, luminescence, retest (AID 449756); type: functional, cell-based; settings: Rattus norvegicus;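 also: cell death triggered by IL-1 beta plus TNF-alpha plus IFN-gamma mixture; protective hits raise ATP signal compared with cytokine alone wells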
[4] = NIH-3T3 fibroblast cytotoxicity, dose response, cytotoxicity control, cell-based, fluorescence, Alamar Blue, secondary assay (AID 2327); type: functional;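 also: NIH-3T3 mouse fibroblasts cultured with fluconazole at 8 µg/mL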
[5] = target: T1, Microphthalmia-associated transcription factor (Homo sapiens, UniProt O75030); assay: TRPM1 promoter luciferase signal decrease, dose response, MITF inhibitor project, cell-based, SK-MEL-5, cherry-picked, set 3 (AID 493073); type: functional
T1 sequence (O75030 whole entry): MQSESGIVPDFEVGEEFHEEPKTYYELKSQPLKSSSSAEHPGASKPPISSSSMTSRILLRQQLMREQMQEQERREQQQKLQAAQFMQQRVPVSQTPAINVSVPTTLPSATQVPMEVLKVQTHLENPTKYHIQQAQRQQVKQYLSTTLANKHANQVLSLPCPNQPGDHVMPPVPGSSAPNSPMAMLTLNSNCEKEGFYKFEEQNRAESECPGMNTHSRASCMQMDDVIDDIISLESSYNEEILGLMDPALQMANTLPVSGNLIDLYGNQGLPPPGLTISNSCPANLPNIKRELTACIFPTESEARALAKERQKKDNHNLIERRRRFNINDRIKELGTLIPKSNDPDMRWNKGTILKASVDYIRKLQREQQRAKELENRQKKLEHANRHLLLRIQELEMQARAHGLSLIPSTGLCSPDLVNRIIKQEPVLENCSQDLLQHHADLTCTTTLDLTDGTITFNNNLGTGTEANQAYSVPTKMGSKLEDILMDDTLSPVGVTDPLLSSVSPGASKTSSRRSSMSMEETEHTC

[6] = target: 72 kDa type IV collagenase (Homo sapiens, UniProt P08253); assay: Dose Response validation of uHTS RPN11 inhibitor hits using a MMP-2 Fluorescence assay.; type: functional
[7] = target: 26S proteasome non-ATPase regulatory subunit 14 (Homo sapiens, UniProt O00487); assay: inhibition of proteasome subunit RPN11 – biochemical, fluorescence polarization, uHTS hits, confirmation (AID 602368); type: functional
[8] = target: Prothrombin (Bos taurus, UniProt P00735); assay: thrombin inhibition, dose response, biochemical, fluorescence polarization, uHTS hits (AID 602369); type: functional
[9] = target: T2, Trace amine-associated receptor 1 (Homo sapiens, UniProt Q96RJ0); assay: Counterscreen for agonists of the human trace amine associated receptor 1 (hTAAR1): Fluorescence-based cell-based high throughput dose response assay to identify hTAAR1 agonist that also desensitize TAAR1 receptor response.; type: functional
T2 sequence (Q96RJ0 whole entry): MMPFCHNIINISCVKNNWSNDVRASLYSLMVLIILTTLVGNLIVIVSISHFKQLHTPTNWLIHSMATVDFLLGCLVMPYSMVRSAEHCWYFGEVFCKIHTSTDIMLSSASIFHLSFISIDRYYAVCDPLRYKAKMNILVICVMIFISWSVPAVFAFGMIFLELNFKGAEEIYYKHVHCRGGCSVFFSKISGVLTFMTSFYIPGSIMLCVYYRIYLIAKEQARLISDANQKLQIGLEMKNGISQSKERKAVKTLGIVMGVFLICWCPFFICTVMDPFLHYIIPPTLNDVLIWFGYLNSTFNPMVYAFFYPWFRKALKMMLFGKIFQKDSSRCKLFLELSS

[10] = target: T2, Trace amine-associated receptor 1; assay: Fluorescence-based cell-based high throughput dose response assay to identify agonists of the human trace amine associated receptor 1 (TAAR1).; type: functional
[11] = target: T3, Aminopeptidase N (Plasmodium falciparum FcB1/Columbia, UniProt O96935); assay: P. falciparum M1AAP inhibitors, biochemical, fluorogenic H-Leu-NHMec substrate, 1536-well (AID 1445); parameters: species or system Plasmodium falciparum 3D7, 3D7
T3 sequence (O96935 whole entry): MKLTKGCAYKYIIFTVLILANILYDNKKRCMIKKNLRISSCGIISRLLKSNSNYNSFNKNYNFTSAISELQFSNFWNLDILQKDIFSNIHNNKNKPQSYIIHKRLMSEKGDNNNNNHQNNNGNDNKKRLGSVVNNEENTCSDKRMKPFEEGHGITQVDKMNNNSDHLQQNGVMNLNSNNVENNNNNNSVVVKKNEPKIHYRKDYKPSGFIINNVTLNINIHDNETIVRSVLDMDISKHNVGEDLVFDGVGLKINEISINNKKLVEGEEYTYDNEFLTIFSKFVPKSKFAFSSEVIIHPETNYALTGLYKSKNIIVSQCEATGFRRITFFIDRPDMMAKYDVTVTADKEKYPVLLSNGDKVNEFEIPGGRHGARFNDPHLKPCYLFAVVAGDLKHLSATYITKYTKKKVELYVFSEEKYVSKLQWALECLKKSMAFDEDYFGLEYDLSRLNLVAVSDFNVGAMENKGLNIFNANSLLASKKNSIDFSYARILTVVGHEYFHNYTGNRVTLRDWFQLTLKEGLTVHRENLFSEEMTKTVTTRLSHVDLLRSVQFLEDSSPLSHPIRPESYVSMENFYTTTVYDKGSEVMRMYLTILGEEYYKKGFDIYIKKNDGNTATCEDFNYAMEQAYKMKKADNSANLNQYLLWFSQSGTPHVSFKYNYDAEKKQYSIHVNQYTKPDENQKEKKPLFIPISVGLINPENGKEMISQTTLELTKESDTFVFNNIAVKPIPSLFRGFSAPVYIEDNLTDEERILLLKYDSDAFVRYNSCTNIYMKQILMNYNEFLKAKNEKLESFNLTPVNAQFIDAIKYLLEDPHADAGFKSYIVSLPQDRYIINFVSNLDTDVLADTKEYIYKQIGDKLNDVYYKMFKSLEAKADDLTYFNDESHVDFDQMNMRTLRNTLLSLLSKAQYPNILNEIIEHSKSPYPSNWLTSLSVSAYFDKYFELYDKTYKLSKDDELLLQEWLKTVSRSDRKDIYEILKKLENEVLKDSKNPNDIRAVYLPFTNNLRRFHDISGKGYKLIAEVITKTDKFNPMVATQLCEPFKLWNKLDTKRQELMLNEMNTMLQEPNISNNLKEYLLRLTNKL

[12] = target: T4, Endoribonuclease toxin MazF (Escherichia coli K-12, UniProt P0AE70); assay: MazF toxin RNase activators, dose response, biochemical, fluorescence, single-stranded RNA substrate, uHTS hits (AID 588481); type: functional
T4 sequence (P0AE70 whole entry): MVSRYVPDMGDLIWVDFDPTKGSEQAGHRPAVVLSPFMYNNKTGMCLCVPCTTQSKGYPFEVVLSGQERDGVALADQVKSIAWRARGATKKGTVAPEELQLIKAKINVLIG

[13] = target: T4, Endoribonuclease toxin MazF; assay: fluorescent RNA oligo signal without MazF, dose response, counter-screen for MazEF activator project, biochemical, fluorescence, single-stranded RNase substrate (AID 588502); type: functional
[14] = target: T5, Mannose-6-phosphate isomerase (Homo sapiens, UniProt P34949); assay: human PMI inhibitors, high substrate, primary screen, biochemical, fluorescence intensity, high mannose 6-phosphate (AID 1220)
T5 sequence (P34949 whole entry): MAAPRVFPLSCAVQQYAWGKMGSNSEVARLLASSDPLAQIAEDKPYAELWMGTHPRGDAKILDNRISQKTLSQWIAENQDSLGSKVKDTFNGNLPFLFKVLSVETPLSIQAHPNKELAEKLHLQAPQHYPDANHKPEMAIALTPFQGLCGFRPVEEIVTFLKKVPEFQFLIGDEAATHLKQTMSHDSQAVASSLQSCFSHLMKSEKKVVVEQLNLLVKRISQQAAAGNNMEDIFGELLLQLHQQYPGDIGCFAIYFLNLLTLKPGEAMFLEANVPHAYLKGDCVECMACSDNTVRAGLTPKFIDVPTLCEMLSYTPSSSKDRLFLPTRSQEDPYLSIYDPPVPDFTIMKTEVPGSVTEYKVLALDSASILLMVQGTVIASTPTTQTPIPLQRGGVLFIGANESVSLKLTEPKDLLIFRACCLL

[15] = cells; type: functional, cell-based
[16] = cells; type: functional, cell-based; remark: listed apart in the source

Sequence of Melanocortin receptor 4 (P32245 whole entry): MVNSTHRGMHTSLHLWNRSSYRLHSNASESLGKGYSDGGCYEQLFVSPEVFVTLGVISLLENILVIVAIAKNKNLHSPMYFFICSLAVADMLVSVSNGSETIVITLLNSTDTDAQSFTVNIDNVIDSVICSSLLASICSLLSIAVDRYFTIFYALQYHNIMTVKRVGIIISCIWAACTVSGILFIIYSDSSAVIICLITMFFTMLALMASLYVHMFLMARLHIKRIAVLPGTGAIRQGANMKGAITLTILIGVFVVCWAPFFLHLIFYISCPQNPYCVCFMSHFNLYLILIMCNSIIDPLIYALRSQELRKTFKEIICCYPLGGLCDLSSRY
Sequence of 26S proteasome non-ATPase regulatory subunit 14 (O00487 whole entry): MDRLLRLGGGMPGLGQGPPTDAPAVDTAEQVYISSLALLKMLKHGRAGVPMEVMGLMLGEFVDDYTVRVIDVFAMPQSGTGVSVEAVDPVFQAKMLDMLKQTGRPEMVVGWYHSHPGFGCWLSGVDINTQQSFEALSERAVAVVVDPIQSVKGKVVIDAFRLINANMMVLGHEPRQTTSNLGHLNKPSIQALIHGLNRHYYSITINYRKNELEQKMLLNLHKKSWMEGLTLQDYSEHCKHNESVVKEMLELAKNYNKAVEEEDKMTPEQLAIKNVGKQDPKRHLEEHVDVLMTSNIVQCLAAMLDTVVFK
Sequence of 72 kDa type IV collagenase (P08253 whole entry): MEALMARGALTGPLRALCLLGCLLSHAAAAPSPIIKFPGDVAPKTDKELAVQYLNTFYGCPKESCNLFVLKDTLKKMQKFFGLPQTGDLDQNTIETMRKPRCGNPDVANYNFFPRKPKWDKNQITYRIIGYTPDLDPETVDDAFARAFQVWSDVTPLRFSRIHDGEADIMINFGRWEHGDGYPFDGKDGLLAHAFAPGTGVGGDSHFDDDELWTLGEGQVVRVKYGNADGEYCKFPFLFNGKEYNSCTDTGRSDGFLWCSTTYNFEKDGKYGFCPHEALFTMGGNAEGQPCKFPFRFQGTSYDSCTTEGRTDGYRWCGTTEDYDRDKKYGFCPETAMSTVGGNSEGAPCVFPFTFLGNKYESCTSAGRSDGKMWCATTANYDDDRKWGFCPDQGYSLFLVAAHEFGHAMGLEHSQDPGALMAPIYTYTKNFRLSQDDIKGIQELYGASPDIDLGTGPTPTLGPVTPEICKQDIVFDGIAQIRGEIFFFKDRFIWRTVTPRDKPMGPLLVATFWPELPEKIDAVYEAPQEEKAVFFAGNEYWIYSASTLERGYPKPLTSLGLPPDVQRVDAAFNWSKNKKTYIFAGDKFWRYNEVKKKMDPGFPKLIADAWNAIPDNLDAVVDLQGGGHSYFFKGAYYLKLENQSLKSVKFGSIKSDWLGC

Question: Which EC50 [1] does the source give for `CC1CCC(C(C)C)C(OC(=O)C[n+]2cc(-c3ccc(Cl)cc3)n3c2CCCCC3)C1` (stereo not drawn) here?
Answer: > 9.91 µM (active)

Question: And the EC50 [2]?
Answer: 0.459 µM (active)

Question: What about the AC50 [3] of the same molecule?
Answer: 4.91 µM (active)

Question: What about the EC50 [4] of the same molecule?
Answer: > 160 µM (inactive)

Question: And the AC50 [5]?
Answer: 6.97 µM (active)

Question: Which EC50 [1] does the source give for `C1COCCO1.Cc1cc(C)c2nc(Nc3nc(O)cc(-c4ccccc4)n3)nc(C)c2c1` here?
Answer: > 89.2 µM (inactive)

Question: With `CCOc1ccc(C(=O)CCC(=O)N2CCN(c3ncccn3)CC2)cc1` as the molecule, how does the IC50 [6] read?
Answer: 83.5 µM (active)

Question: What about the IC50 [7] of the same molecule?
Answer: 38.6 µM (active)

Question: What about the IC50 [8] of the same molecule?
Answer: 34.3 µM (active)

Question: Which IC50 [9] does the source give for `O=c1nc(N2CCCCC2)nc(Nc2ccccc2)[nH]1` here?
Answer: 4.65 µM (active)

Question: And the EC50 [10]?
Answer: 3.44 µM (active)

Question: And the IC50 [11]?
Answer: 51.9 µM (active)

Question: Which EC50 [1] does the source give for `O=C(c1ccc(COc2ccc(Br)cc2)o1)N1N=C(C(F)F)CC1(O)C(F)F` (stereo not drawn) here?
Answer: > 89.2 µM (inactive)

Question: Which results are given for `COCc1n[nH]c2c1C(c1cc(OC)c(O)c(OC)c1)C(C#N)=C(N)O2` (stereo not drawn)?
Answer: EC50 [12]: > 99 µM (inactive); EC50 [13]: > 99 µM (inactive); IC50 [14]: > 50 µM (not active)

Question: Which IC50 [9] does the source give for `CN(CCc1ccccc1)Cc1c[nH]c2ccccc12` here?
Answer: 13.2 µM (inactive)

Question: What about the EC50 [15] of the same molecule?
Answer: > 29.9 µM (inactive)

Question: What about the IC50 [16] of the same molecule?
Answer: > 29.9 µM (inactive)

Question: And the EC50 [10]?
Answer: 1.05 µM (active)

Question: Which results are given for `CC(C)Oc1ccc(/C=C(\NC(=O)/C=C/c2ccco2)C(=O)NCCc2nc3ccccc3[nH]2)cc1`?
Answer: IC50 [6]: > 100 µM (inactive); IC50 [7]: 57.5 µM (active); IC50 [8]: 55.6 µM (active)
